The source of these data is paper PMC12458685, “Thwarting Isomerization through Rigidity: A Promising HBED Derivative for the Chelation of Gallium-68” (Inorganic Chemistry, 2025).

Details of data set [1]: method as in number not given. The settings on record: ref number not given, cited from earlier work; for pGa^3+: under the same conditions (pH 7.4, C L = 10 μM, C Ga = 1 μM).
Data set [2] in a line: Acidity constants of HBCD by UV–vis pH-spectrophotometric titration. The settings on record: T = 25 °C, I = 0.15 M NaCl. Type of data set: physicochemical. On the procedure:
As the pH increases, the intensity of the band at 275 nm decreases, while two new bands emerge at 241 and 298 nm, with their absorbance progressively increasing. […] These pH-dependent changes in the electronic spectra allowed the determination of the acidity constants (pK a) of HBCD, which are summarized in Table .
(§1) UV–vis pH-spectrophotometric titrations were conducted using the in-cell method for the free HBCD and the out-of-cell method for the Ga^3+-HBCD mixture at T = 25 °C and I = 0.15 M NaCl. In the latter case, stock solutions of HBCD and Ga^3+ were combined in separate vials at 1:1 metal-to-ligand ratio (C Ga = C L = 20–50 μM). Small volumes (μL) of HCl and/or NaOH were used to adjust the pH. pH measurements were performed using a calibrated pH meter (Mettler-Toledo). The vials were sealed and heated to T = 80 °C to ensure complete complexation, then cooled to ambient temperature. The electronic spectra were recorded, and the equilibrium was considered to be reached when no further changes in either the pH or the electronic spectra were observed.

Data set [3] can be described thus: Formation kinetics of Ga^3+-HBCD (1H NMR and UV–vis). The class given is physicochemical. How it is done: Before the thermodynamic investigation, the formation kinetics of the Ga^3+-HBCD complexes were qualitatively assessed using ^1H NMR and UV–vis spectroscopies at different pH and concentrations to determine the time needed to reach equilibrium. Understanding the equilibration conditions is essential for obtaining accurate thermodynamic data and for gaining an initial insight into the binding capacity of the new chelator.
The formation kinetics of the Ga^3+-HBCD complexes was evaluated at room temperature using ^1H NMR and UV–vis spectroscopies. Equimolar amounts of Ga^3+ and HBCD solutions (final concentrations: 1 mM for ^1H NMR, 50 μM for UV–vis) in buffered media (e.g., pH 2 HCl 10^–2 M, pH 4.5 acetic/acetate buffer). The complexation reaction was tracked by monitoring the increase in peaks characteristic of Ga^3+-ligand complex formation over time.

Data set [4] in a line: Acidity constants of HBCD by pH-dependent 1H NMR titration. Type of data set: physicochemical. The note with it: T = 25 °C, I = 0.15 M NaCl. The source says: The assignment of the other four protonation constants (pK a,3, pK a,4, pK a,5 and pK a,6) is extremely challenging. […] According to NMR data of HBCD, pK a,3 can reasonably be assigned to one of the tertiary ammine. Once this dissociation occurs, the nitrogen atom can form a hydrogen bond with the phenolic group or with the other amine group. The next dissociation (pK a,4) can be attributed to the other phenolic moiety that can be then involved in the formation of the hydrogen bond with the protonated ammine. The last two dissociations can tentatively be attributed to the second phenolic group (pK a,5) and the tertiary amine (pK a,6).
(§2) ^1H NMR spectra of free HBCD or Ga^3+-HBCD mixtures (C L = C Ga = 1 mM) were recorded at T = 25 °C and I = 0.15 M NaCl, in D2O, at different pH. The pH was adjusted following the procedure used in the UV–vis experiments. To account for isotopic effects, 0.41 log units were added to the measured pH values. Under highly acidic conditions, the pH was calculated from the HCl concentration using the formula pH = −log[C(H^+)]. […] Prolonged heating was applied to accelerate the complexation reaction. The thermodynamic data were elaborated with HypSpec, HypNMR or as described in previous publications. , Hydrolysis constants and solubility products of Ga^3+ in aqueous ionic media were taken from ref .

A short description of data set [5]: Thermodynamic stability of Ga^3+-HBCD (UV–vis and 1H NMR in-batch titrations; pGa^3+ calculation). Type of data set: physicochemical. The settings on record: for pGa^3+ (−log[Ga^3+]free): calculated at pH 7.4, C L = 10 μM and C Ga = 1 μM. On the procedure:
The thermodynamic stability of Ga^3+-HBCD was evaluated by UV–vis and ^1H NMR spectroscopies. Due to the slow complexation kinetics observed at highly acidic pH values, in-batch titrations were conducted, and heating was applied to speed up the attainment of equilibrium under these conditions. Representative pH-dependent ^1H NMR and UV–vis spectra are reported in Figures S12 and S13, respectively. The overall stability constants (log β) of Ga^3+-HBCD are provided in Table while the corresponding distribution diagram is shown in Figure in comparison with HBED.
To compare the chelating abilities of HBCD and HBED, the pGa^3+ values (pGa^3+ = −log[Ga^3+]free) were calculated under physiological conditions (pH = 7.4, C L = 10 μM and C Ga = 1 μM). This parameter accounts for both ligand basicity and metal-ion hydrolysis, with higher pGa^3+ values indicating greater complex stability under the given conditions.
as §1, §2

A short description of data set [6]: Stability of HBCD aqueous stock solution (NMR, ESI-MS, UV–vis). The class given is physicochemical. The settings on record: room temperature, up to one month. How it is done:
HBCD stock solutions were prepared by dissolving a weighed amount of ligand directly in Milli-Q water to achieve a concentration of approximately 1 mM. The solubility of HBCD in water depends on pH: minimal values occur at acidic pH, where the noncharged form predominates. To enhance solubility, small amount of NaOH were added, and the solution was sonicated for 15 min. The stability of HBCD at room temperature was confirmed by NMR, ESI-MS and UV–vis measurements conducted over the course of up to one month following solution preparation.

On the set-up of data set [7]: method as in number not given. The note with it: I = 0.10 M KCl, T = 25 °C; literature data, ref number not given; cited from earlier work.
On the set-up of data set [8]: method as in number not given. The settings on record: for in vivo imaging; ref number not given; cited from earlier work.

Like-named read-outs stand apart in the source and are kept apart here.

`O=C(O)CN1CCN(CC(=O)O)CCN(CC(=O)O)CCN(CC(=O)O)CC1` [DOTA, 1,4,7,10-tetraazacyclododecane-1,4,7,10-tetraacetic acid]: in data set [1], the “pGa^3+” value was 18.5.
Take `O=C(O)CN(Cc1ccccc1O)[C@@H]1CCCC[C@H]1N(CC(=O)O)Cc1ccccc1O` [HBCD, N,N′-di(2-hydroxybenzyl)-(1,2-cyclohexanediamine)-N,N′-diacetic acid]: in data set [2] (UV–vis), the “pK a,3 (H4L ⇌ H^+ + H3L^–)” value was 5.20 ± 0.06, the “pK a,4 (H3L^– ⇌ H^+ + H2L^2–)” value stood at 9.42 ± 0.04, the “pK a,5 (H2L^2– ⇌ H^+ + HL^3–)” value was found to be 11.94 ± 0.03 and the “pK a,6 (HL^3– ⇌ H^+ + L^4–)” value was found to be 13.2 ± 0.2. In data set [2] (calculated from UV–vis data), the “average value of pK a,1 and pK a,2” value is “d An average value of pK a,1 and pK a,2 equal to 1.7 ± 0.2 was calculated from UV–vis data”. Further, in data set [3] (pH ∼ 2, room temperature, after 24 h, 1H NMR), the “Ga^3+ complex formation” value is “no complex formation was observed”. In data set [3] (pH ∼ 4.5, 50 μM, UV–vis), the “time to reach completion of Ga^3+ complexation” value is listed as “approximately 1 h”. The “Ga^3+ complexation rate” value in data set [3] (pH ∼ 4.5, mM metal and ligand concentrations, 1H NMR) is reported as “nearly instantaneous”. In addition, in data set [4], the “pK a,1 (H6L^2+ ⇌ H^+ + H5L^+)” value turned out to be 1.1 ± 0.2, the “pK a,2 (H5L^+ ⇌ H^+ + H4L)” value turned out to be 3.1 ± 0.3, the “pK a,3 (H4L ⇌ H^+ + H3L^–)” value stood at 4.9 ± 0.4 and the “pK a,4 (H3L^– ⇌ H^+ + H2L^2–)” value was found to be 9.7 ± 0.3. Also, in data set [4], the “pK a,5 (H2L^2– ⇌ H^+ + HL^3–)” value is 12.2 ± 0.1 and the “pK a,6 (HL^3– ⇌ H^+ + L^4–)” value is on record as 13.5 ± 0.2. In data set [5] (T = 25 °C, I = 0.15 M NaCl), the “log β, Ga^3+ + H^+ + L^4– ⇌ [GaHL]” value is 41.2 ± 0.1 and the “log β, Ga^3+ + L^4– ⇌ [GaL]^−” value is given as 39.2 ± 0.1. Further, in data set [5], the “pGa^3+ (−log[Ga^3+]free)” value was 27.0. For the same compound, the “stability of HBCD in solution” value in data set [6] is “confirmed”.
Take `O=C(O)CN(CCN(CC(=O)O)Cc1ccccc1O)Cc1ccccc1O` [HBED, N,N′-di(2-hydroxybenzyl)ethylenediamine-N,N′-diacetic acid]: in data set [7], the “pK a,2 (H5L^+ ⇌ H^+ + H4L)” value is given as 2.24, the “pK a,3 (H4L ⇌ H^+ + H3L^–)” value was 4.40, the “pK a,4 (H3L^– ⇌ H^+ + H2L^2–)” value is 8.34 and the “pK a,5 (H2L^2– ⇌ H^+ + HL^3–)” value is 11.03. In data set [7], the “pK a,6 (HL^3– ⇌ H^+ + L^4–)” value is 12.64. Moreover, in data set [1] (literature data), the “log β, Ga^3+ + H^+ + L^4– ⇌ [GaHL]” value is 40.81 and the “log β, Ga^3+ + L^4– ⇌ [GaL]^−” value is 38.51. The “pGa^3+ (−log[Ga^3+]free)” value in data set [5] is 29.6.
With `O=C(O)CN(Cc1cccc(C(=O)O)n1)Cc1cccc(C(=O)O)n1` [dpaa], in data set [8], the “serum stability of the [^68Ga]Ga^3+ complex” value is on record as “poor”.
As for “transferrin: iron-transporting protein, one of the primary in vivo competitors for Ga^3+”, the “pGa^3+” value in data set [1] is recorded as 20.3.
